# Test results reported in ChEMBL document CHEMBL4000175, “Biology-oriented drug synthesis (BIODS): In vitro β-glucuronidase inhibitory and in silico studies on 2-(2-methyl-5-nitro-1H-imidazol-1-yl)ethyl aryl carboxylate derivatives” (Eur J Med Chem, 2017).
# Target: T1, Beta-glucuronidase (Bos taurus, UniProt A3KMY8)
# T1 sequence (A3KMY8 whole entry): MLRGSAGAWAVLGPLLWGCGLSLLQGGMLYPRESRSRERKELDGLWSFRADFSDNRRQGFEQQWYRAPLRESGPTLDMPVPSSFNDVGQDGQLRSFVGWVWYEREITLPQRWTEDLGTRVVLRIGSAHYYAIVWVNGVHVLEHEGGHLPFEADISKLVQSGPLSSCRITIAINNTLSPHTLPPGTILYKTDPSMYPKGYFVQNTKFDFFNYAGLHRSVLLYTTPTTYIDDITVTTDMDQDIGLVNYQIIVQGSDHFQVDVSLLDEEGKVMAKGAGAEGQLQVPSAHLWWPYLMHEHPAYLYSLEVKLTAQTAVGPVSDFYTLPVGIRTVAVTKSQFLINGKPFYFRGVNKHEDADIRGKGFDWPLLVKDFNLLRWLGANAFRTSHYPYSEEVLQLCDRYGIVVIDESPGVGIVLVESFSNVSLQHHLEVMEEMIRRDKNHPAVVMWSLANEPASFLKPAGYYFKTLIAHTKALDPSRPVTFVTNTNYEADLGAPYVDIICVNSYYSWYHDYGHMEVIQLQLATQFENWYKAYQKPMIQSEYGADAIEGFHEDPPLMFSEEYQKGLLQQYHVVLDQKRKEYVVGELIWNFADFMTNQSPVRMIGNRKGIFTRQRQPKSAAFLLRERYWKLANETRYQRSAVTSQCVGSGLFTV
# Assay: Inhibition of bovine liver beta glucuronidase using p-nitrophenyl-beta-D-glucuronide as substrate preincubated for 30 mins followed by substrate addition by spectrophotometric method
# Settings: not given; call rule not given here
row,SMILES,IC50
1,Cc1cccc(C(=O)OCCn2c([N+](=O)[O-])cnc2C)c1,Not Active
2,CCCCOc1ccc(C(=O)OCCn2c([N+](=O)[O-])cnc2C)cc1,Not Active

# Further lines, results first:
row,IC50,SMILES
1,Not Active,Cc1ncc([N+](=O)[O-])n1CCOC(=O)c1ccc2ccccc2c1
2,Not Active,Cc1ncc([N+](=O)[O-])n1CCOC(=O)c1cccc2ccccc12

# Same assay, conditions: read-out: IC50
row,SMILES,IC50 [µM]
1,COc1ccc(C(=O)OCCn2c([N+](=O)[O-])cnc2C)cc1,60.2
2,Cc1ccc(C(=O)OCCn2c([N+](=O)[O-])cnc2C)cc1,35.5
3,Cc1ncc([N+](=O)[O-])n1CCOC(=O)c1cccnc1,32.6
4,Cc1cc(C)cc(C(=O)OCCn2c([N+](=O)[O-])cnc2C)c1,24.2
5,Cc1ncc([N+](=O)[O-])n1CCOC(=O)c1cccc(F)c1,8.1
6,Cc1ncc([N+](=O)[O-])n1CCOC(=O)c1cccc([N+](=O)[O-])c1,27.6
7,Cc1ncc([N+](=O)[O-])n1CCOC(=O)c1ccc([N+](=O)[O-])cc1,8.9
8,Cc1ncc([N+](=O)[O-])n1CCOC(=O)c1ccc(Br)cc1,42.6
9,COc1cc(OC)cc(C(=O)OCCn2c([N+](=O)[O-])cnc2C)c1,60.3
10,COc1ccc(/C=C/C(=O)OCCn2c([N+](=O)[O-])cnc2C)cc1,31.1
11,Cc1ncc([N+](=O)[O-])n1CCOC(=O)c1ccc(F)cc1Br,6.3
12,Cc1ncc([N+](=O)[O-])n1CCOC(=O)c1ccc(F)cc1,12.4
13,Cc1cc(C(=O)OCCn2c([N+](=O)[O-])cnc2C)ccc1[N+](=O)[O-],7.3
14,Cc1ncc([N+](=O)[O-])n1CCOC(=O)c1ccc2ncsc2c1,8.4
15,Clc1ccc(-c2nc3ccccc3[nH]2)cc1Cl,6.33

# Other lines, results leading:
row,IC50 [µM],SMILES
1,16.3,Cc1ncc([N+](=O)[O-])n1CCOC(=O)c1cccc(Cl)c1
2,3.6,Cc1ncc([N+](=O)[O-])n1CCOC(=O)c1ccc(Cl)c(Cl)c1
3,6.2,Cc1ncc([N+](=O)[O-])n1CCOC(=O)c1cc(Cl)ccc1Cl
4,48.5,Cc1ncc([N+](=O)[O-])n1CCOC(=O)c1ccccc1Br
5,2.1,Cc1ncc([N+](=O)[O-])n1CCOC(=O)c1cc2ccccc2[nH]1
6,44.2,Cc1ccccc1C(=O)OCCn1c([N+](=O)[O-])cnc1C
7,19.3,Cc1ncc([N+](=O)[O-])n1CCOC(=O)c1ccccc1Cl

# Target: T2, Beta-glucuronidase (Bos taurus) (UniProt A3KMY8)
# T2 sequence (whole entry): T1 sequence (A3KMY8 whole entry)
# Assay: Potency index, ratio of D-saccharic acid 1,4-lactone IC50 to compound IC50 for bovine liver beta glucuronidase
# Settings: not given
row,SMILES,Ratio IC50
1,Cc1cc(C(=O)OCCn2c([N+](=O)[O-])cnc2C)ccc1[N+](=O)[O-],7
2,Cc1ncc([N+](=O)[O-])n1CCOC(=O)c1ccc2ncsc2c1,6

# The remaining lines, values ahead:
row,Ratio IC50,SMILES
1,15,Cc1ncc([N+](=O)[O-])n1CCOC(=O)c1ccc(Cl)c(Cl)c1
2,24,Cc1ncc([N+](=O)[O-])n1CCOC(=O)c1cc2ccccc2[nH]1
